Results published in patent publication US20070128217A1 (priority 2003, published 2007).

How the values were obtained:
[1] = system: rabbit serum obtained by immunizing a rabbit with the SARS-CoV strain Frankfurt 1; assay type: binding; set-up: Binding of a rabbit serum to linear peptides / Binding of a rabbit serum to looped peptides / Rabbit serum linear peptides / Rabbit serum looped peptides / Binding of a rabbit serum to linear peptides of protein N of SARS-CoV Urbani (Rabbit serum linear peptides) / Binding of a rabbit serum to looped/cyclic peptides of protein N of SARS-CoV Urbani (Rabbit serum looped peptides): unit not given here
[2] = system: control sera (pooled serum of ten healthy LUMC hospital workers; commercial negative donor pooled serum from the Dutch bloodbank); assay type: binding, human
[3] = system: antibodies in sera from SARS patients (sera 1a, 1b, 2, 6, 37, 62, London, SARS-yellow, SARS-green); assay type: binding, human

Sequence	Binding of a rabbit serum to linear peptides [1]	Binding of a rabbit serum to looped peptides [1]	Binding of Control Serum Blood-Bank to Looped peptides [2]	Binding of Control serum Blood-bank to linear peptides [2]	Binding of Control serum LUMC to linear peptides [2]	Binding of Control serum LUMC to looped peptides [2]	Binding of serum 1a to linear peptides of protein E of SARS-CoV Urbani [3]	Binding of serum 1a to looped/cyclic peptides of protein E of SARS-CoV Urbani [3]	Binding of serum 1b to linear peptides of protein E of SARS-CoV Urbani [3]	Binding of serum 1b to looped/cyclic peptides of protein E of SARS-CoV Urbani [3]	Binding of serum 2 to linear peptides of protein E of SARS-CoV Urbani [3]	Binding of serum 2 to looped/cyclic peptides of protein E of SARS-CoV Urbani [3]	Binding of serum 6 to linear peptides of protein E of SARS-CoV Urbani [3]	Binding of serum 6 to looped/cyclic peptides of protein E of SARS-CoV Urbani [3]	Binding of serum 37 to linear peptides of protein E of SARS-CoV Urbani [3]	Binding of serum 37 to looped/cyclic peptides of protein E of SARS-CoV Urbani [3]	Binding of serum 62 to linear peptides of protein E of SARS-CoV Urbani [3]	Binding of serum 62 to looped/cyclic peptides of protein E of SARS-CoV Urbani [3]	Binding of serum London to linear peptides of protein E of SARS-CoV Urbani [3]	Binding of serum London to looped/cyclic peptides of protein E of SARS-CoV Urbani [3]	further results
LLFLAFVVFLLVTLA	0.6	0.4	0.5	0.6	0.4	0.7	0.8	0.7	0.6	0.4	0.5	0.6	0.7	0.4	0.7	0.7	0.7	0.7	0.5	0.4	Binding of serum SARS-green to linear peptides of protein E of SARS-CoV Urbani [3]: 0.4; Binding of serum SARS-green to looped/cyclic peptides of protein E of SARS-CoV Urbani [3]: 0.4; Binding of serum SARS-yellow to linear peptides of protein E of SARS-CoV Urbani [3]: 0.2; Binding of serum SARS-yellow to looped/cyclic peptides of protein E of SARS-CoV Urbani [3]: 0.7
ETGTLIVNSVLLFLA	0.3	0.0	0.5	0.5	0.8	0.5	0.8	0.5	0.7	0.4	0.8	0.5	0.5	0.4	0.4	0.5	0.4	0.7	0.8	0.4	Binding of serum SARS-green to linear peptides of protein E of SARS-CoV Urbani [3]: 0.6; Binding of serum SARS-green to looped/cyclic peptides of protein E of SARS-CoV Urbani [3]: 0.3; Binding of serum SARS-yellow to linear peptides of protein E of SARS-CoV Urbani [3]: 0.4; Binding of serum SARS-yellow to looped/cyclic peptides of protein E of SARS-CoV Urbani [3]: 0.5
RLCAYCCNIVNVSLV	0.4	0.2	0.7	0.8	0.6	0.8	0.6	0.7	0.5	0.7	0.6	0.7	0.4	0.7	0.5	0.6	0.4	0.8	0.5	0.5	Binding of serum SARS-green to linear peptides of protein E of SARS-CoV Urbani [3]: 0.5; Binding of serum SARS-green to looped/cyclic peptides of protein E of SARS-CoV Urbani [3]: 0.8; Binding of serum SARS-yellow to linear peptides of protein E of SARS-CoV Urbani [3]: 0.2; Binding of serum SARS-yellow to looped/cyclic peptides of protein E of SARS-CoV Urbani [3]: 0.6
TALRLCAYCCNIVNV	0.2	0.4	0.7	0.5	0.6	0.7	0.7	0.7	0.5	0.4	0.5	0.8	0.4	0.6	0.5	0.7	0.5	0.9	0.5	0.5	Binding of serum SARS-green to linear peptides of protein E of SARS-CoV Urbani [3]: 0.6; Binding of serum SARS-green to looped/cyclic peptides of protein E of SARS-CoV Urbani [3]: 0.7; Binding of serum SARS-yellow to linear peptides of protein E of SARS-CoV Urbani [3]: 0.2; Binding of serum SARS-yellow to looped/cyclic peptides of protein E of SARS-CoV Urbani [3]: 0.9
